According to patent US4444780A, “Method for treating atopic dermatitis” (priority 1982, dated 1984):
“Also recorded” adds a separate entry of the source. Like-named read-outs stand apart in the source and are kept apart here.

Key:
[1] = system: passive cutaneous anaphylaxis reaction; experiment: Passive Cutaneous Anaphylaxis Test (PCA), topical antiallergic activity; format: in vivo, Male Sprague Dawley rats; conditions: for inhibition in vivo at 1 % / inhibition in vivo at 0.02 % / inhibition in vivo at 0.2 % / inhibition in vivo at 2 % / inhibition in vivo at 0.01 %: Rattus norvegicus, read-out: Percent Inhibition
Text: Male Sprague Dawley rats (175-200 grams) were sensitized intradermally with 0.1 cc of high dilution of antiovalbumin antiserum (IgE-containing) that was predetermined to cause a well circumscribed and reproducible skin wheal response. Two intradermal sensitization sites were applied to the backs of each rat. […] One hour later the rats were challenged intravenously with a solution containing 0.5% ovalbumin and 0.5% Evans blue dye in a saline vehicle. Twenty minutes later the rats were killed by carbon dioxide asphyxiation, the dorsal skin reflected and the blue wheal measured as the mean of the two largest perpendiculars. This mean was used to calculate the area of the wheal according to [A=π(d/2)^2 ]. The wheal area under the drug-treated site was used as an index of local topical activity and the distant site served as an index of systemic activity.

[2] = system: K^+ -Stimulated Ca^++ -mediated Contractions of Rabbit Aortic Strips; experiment: Potassium-Induced Calcium-Mediated Contraction of Aortic Strips; format: cell-based, New Zealand strain rabbits; conditions: for IC50: Oryctolagus cuniculus, read-out: IC50, K+-stimulated Ca++-mediated contractions
Text: New Zealand strain rabbits (1-1.5 kg) were sacrificed by cervical dislocation and the thoracic cavity was opened to expose a section of the aorta. A section of the aorta from the diaphragm to the aortic arch was isolated, dissected out and immediately placed in chilled Krebs bicarbonate buffer solution. A 2 inch section of the aorta was supported on a glass rod in a petri dish with chilled Krebs bicarbonate solution and cleaned of excess tissue. The aorta was then cut into helical strips (3×30 mm) and suspended from a FT03 isometric force displacement transducer coupled to a Beckman recorder. The tissue bath was filled with Krebs bicarbonate buffer maintained at 37° C. and bubbled with 95% 02 and 5% CO2. The helical strips were allowed to equilibrate for 1.5 to 2 hours with a 4 gram resting load. The tissues were dosed in a cumulative manner with 10 mM, 15 mM, 20 mM, 30 mM, 40 mM, 80 mM and 120 mM KCl. The tissues were washed several times after the KCl treatment and were allowed to equilibrate for 1-1.5 hours until a baseline equivalent to 4 grams tension was achieved. A second dose-response to KCl was repeated and again washed and allowed to equilibrate. […] Changes in grams tension were recorded.

[3] = biological target: T1, Δ5 -lipoxygenase (Rattus norvegicus, UniProt P12527); experiment: Lipoxygenase activity in Rat Basophilic Leukemia Cells (RBL-1), 5-HETE formation; format: cell-based; conditions: for effect on lipoxygenase activity (in words): rat basophilic cells
T1 construct: Crude cell extract was used as the source of the Δ5 -lipoxygenase enzyme; endogenous in cells; host or cells: RBL-1 (rat basophilic leukemia) cells, whole or sonicated crude extract
T1 sequence (P12527 1-673): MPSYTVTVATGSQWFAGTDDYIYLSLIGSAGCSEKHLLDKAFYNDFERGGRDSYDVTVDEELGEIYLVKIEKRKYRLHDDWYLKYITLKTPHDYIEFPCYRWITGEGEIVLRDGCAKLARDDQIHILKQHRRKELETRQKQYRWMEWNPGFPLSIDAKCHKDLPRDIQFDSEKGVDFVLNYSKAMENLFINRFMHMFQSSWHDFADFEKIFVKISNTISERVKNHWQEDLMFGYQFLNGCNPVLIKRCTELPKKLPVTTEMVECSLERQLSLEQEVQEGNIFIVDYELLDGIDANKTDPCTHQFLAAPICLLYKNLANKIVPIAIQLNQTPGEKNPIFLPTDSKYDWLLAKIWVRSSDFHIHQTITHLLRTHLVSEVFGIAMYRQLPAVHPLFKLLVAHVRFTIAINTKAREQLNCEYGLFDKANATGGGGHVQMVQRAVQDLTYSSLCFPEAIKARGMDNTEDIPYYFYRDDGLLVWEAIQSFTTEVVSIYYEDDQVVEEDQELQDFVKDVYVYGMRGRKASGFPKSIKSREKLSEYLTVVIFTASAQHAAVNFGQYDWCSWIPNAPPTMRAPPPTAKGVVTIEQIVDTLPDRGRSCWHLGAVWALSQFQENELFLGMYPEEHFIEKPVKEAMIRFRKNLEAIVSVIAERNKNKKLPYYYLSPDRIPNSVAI
Description: Rat basophilic leukemia cells (RBL-1) are basophilic members of the leukocyte series and constitute a circulating form of the mast cell, i.e. they share many or all of the biochemical features of the mast cell involved in mediator release. As leukemic cells they are readily available as they can be grown in culture. RBL-1 cells were grown in minimal essential medium (MEM) containing 10% fetal calf serum, 5% calf serum, 2 mM glutamine, and 50 μg/ml gentamicin. The cells were harvested for each assay, washed once with 50 mM potassium phosphate, 1 mM EDTA, and 0.1% gelatin, pH=7.0. The cells were then resuspended to a concentration of 1.85×10^7 cells/ml. For broken cell assays (i.e. to measure direct effects on the enzyme), these cells were sonicated in an ultrasonic sonifier for 3 minutes while maintaining the sample temperature at 4° C. Crude cell extract was used as the source of the Δ5 -lipoxygenase enzyme. […] The reaction was stopped by the addition of 1 M citric acid to give a final pH of approximately 3.5. The reaction mixture was extracted with diethylether, brought to dryness under a stream of nitrogen and the residues were resuspended and spotted on Gilman ITLC silica gel-impregnated glass filter strips. Synthetic hydroxyeicosotetraenoic acid (5-HETE) standard was spotted with each sample and the sheets were developed in isoctane:2-butanone:glacial acetic acid (100:9:1). After development, the sheets were dried, and the 5-HETE standard was visualized in a tank of iodine crystals. Areas corresponding to 5-HETE were quantitated by liquid scintillation counting. The remainder of each lane was also counted in four sections. Activity was determined as the percent conversion of the total counts in each lane to the area corresponding to 5-HETE. Percent inhibition was calculated from the change in percent conversion in the presence of drug. Blanks determined in the presence of boiled cells were subtracted from all values.

[4] = system: K^+ -stimulated Ca^++ -uptake in rabbit aortic slices; experiment: Calcium Uptake in Rabbit Aorta (K+-stimulated Ca++ uptake in aortic slices); format: cell-based, New Zealand white rabbits; conditions: for inhibition of K+-stimulated Ca++ uptake (in words): rabbit aortic slices, FIG. 2; for effects on calcium mechanisms / calcium movement assays (in words): summary over aortic uptake and contraction assays
Description: Female, New Zealand white rabbits (1-2 kg) were sacrificed by cervical dislocation, and the thoracic […] was immediately removed, cleaned, and sliced into rings (5-20 mg). The tissue was preincubated at 37° C. for 60 minutes. […] After allowing radioactive calcium uptake to occur for 45 minutes, the reaction was stopped by transferring the tissue to a wash-out solution containing 80 mM LaCl3 for 30 minutes. The tissue was removed, blotted of excess moisture, and weighed. The aortic slices were then placed into scintillation vials containing 1 ml Protosol tissue solubilizer and incubated overnight at 55° C. After coding and acidifying, the samples were counted to determine ^45 Ca uptake. Sample results were normalized to counts per minutes per mg, wet tissue weight.

[5] = RBL-1, read-out: % Inhibition of lipoxygenase activity
[6] = RBL-1, 1 μM, read-out: % Inhibition of lipoxygenase activity
[7] = RBL-1, 100 μM, read-out: % Inhibition of lipoxygenase activity

| SMILES | Significance (P < .05) of inhibition ([1]; Topical Dose 1.00%) | activity in the PCA test (in words) ([1]; topical) | inhibition of vascular contraction (in words) ([2]; rabbit aortic strips) | inhibition at 100 µM [3, 5] | effect on lipoxygenase activity (in words) [3] | inhibition in vivo at 0.02 % ([1]; Topical Dose 0.02%) | inhibition in vivo at 0.2 % ([1]; Topical Dose 0.20%) | inhibition in vivo at 2 % ([1]; Topical Dose 2.00%) | Significance (P < .05) of inhibition ([1]; Topical Dose 0.02%) | Significance (P < .05) of inhibition ([1]; Topical Dose 0.20%) | Significance (P < .05) of inhibition ([1]; Topical Dose 2.00%) | also measured |
| --- | --- | --- | --- | --- | --- | --- | --- | --- | --- | --- | --- | --- |
| COc1ccc(CCN(C)CCCC(C#N)(c2ccc(OC)c(OC)c2)C(C)C)cc1OC (stereo not drawn) [Verapamil, verapamil] | No | totally inactive | potent inhibitors | 51% | slight activity; also recorded: None of the compounds produced significant inhibition with the exception of the very high dose (1×10^-4 M) of verapamil | – | – | – | – | – | – | inhibition in vivo at 1 % ([1]; topical): 0%; IC50 [2]: 550 nM; inhibition at 1 µM [3, 5]: 0% |
| CN(C)CCOc1ccccc1Cc1ccccc1 [Phenyltoloxamine, phenyltoloxamine] | – | inactive | – | – | – | 2.6% | 14.3% | 25.9% | No | No | No | – |
| CN1CCC(=C2c3ccccc3C=Cc3ccccc32)CC1 [Cyproheptadine, cyproheptadine] | Yes | potent topical antiallergic effect | potent inhibitors | 78% | statistically equipotent effects on lipoxygenase activity from either whole or broken cells | – | – | – | – | – | – | inhibition in vivo at 0.01 % ([1]; topical): 11.7%; inhibition in vivo at 1 % ([1]; topical): 98.1%; Significance (P < .05) of inhibition ([1]; Topical Dose 0.01%): No; Percent Inhibition ([1]; Topical Dose 0.10%): 25.0%; Significance (P < .05) of inhibition ([1]; Topical Dose 0.10%): Yes; topical ED50, inhibition in the PCA test ([1]; topical 0.1 ml, 1 hour before challenge, vehicle water/alcohol/N-decylmethylsulfoxide, 95% F.L. 0.07, 0.25): 0.13%; inhibition of cutaneous allergic reaction (in words) ([1]; topical, 1% dose): virtually complete inhibition; IC50 ([4]; Oryctolagus cuniculus, read-out: IC50, K+-stimulated Ca++ uptake): ~1000 nM |
| CN(C)CCOC(c1ccccc1)c1ccccc1 [Diphenhydramine, diphenhydramine] | – | inactive | – | – | – | 0% | 8.5% | 43.9% | No | No | No | – |
| CC[C@@H](CO)NC(=O)[C@@H]1C=C2c3cccc4c3c(cn4C)C[C@H]2N(C)C1 [Methysergide, methysergide] | – | – | – | 30% | None of the compounds produced significant inhibition | – | – | – | – | – | – | inhibition at 1 µM [3, 5]: 1% |
| CN(C)CCC(c1ccc(Cl)cc1)c1ccccn1 (stereo not drawn) [Chlorpheniramine, chlorpheniramine] | – | totally inactive | – | – | totally inactive; also recorded: None of the compounds produced significant inhibition | 20% | 16.3% | 16.7% | No | No | No | Inhibition of 45Ca++ Uptake Aortic Slices (summary grade) ([4]; Table 4 grade, symbols not defined): +; inhibition of K+-stimulated Ca++ uptake (in words) [4]: totally inactive; effects on calcium mechanisms / calcium movement assays (in words) [4]: marginal effects; inhibition at 1 µM [3, 6]: 0%; inhibition at 100 µM [3, 7]: 1% |
| Fc1ccc(C(c2ccc(F)cc2)N2CCN(C/C=C/c3ccccc3)CC2)cc1 [Flunarizine, flunarizine] | – | inactive | – | – | – | 16.3% | 13% | 17.2% | No | No | No | – |
| OCCOCCN1CCN(C(c2ccccc2)c2ccc(Cl)cc2)CC1 (stereo not drawn) [Hydroxyzine, hydroxyzine] | No | totally inactive | orders of magnitude less potent | – | totally inactive; also recorded: None of the compounds produced significant inhibition | – | – | – | – | – | – | inhibition in vivo at 0.01 % ([1]; Topical Dose 0.01%): 0%; inhibition in vivo at 1 % ([1]; Topical Dose 1.00%): 0%; Significance (P < .05) of inhibition ([1]; Topical Dose 0.01%): No; Percent Inhibition ([1]; Topical Dose 0.10%): 9.7%; Significance (P < .05) of inhibition ([1]; Topical Dose 0.10%): No; inhibition of K+-stimulated Ca++ uptake (in words) [4]: did not produce 50% inhibition even at a concentration of an order of magnitude greater than the IC50 for cyproheptadine; effects on calcium mechanisms / calcium movement assays (in words) [4]: marginal effects; IC50 ([2]; rabbit aortic strips): 50000 nM; inhibition at 1 µM [3, 6]: 0%; inhibition at 100 µM [3, 7]: 15% |
